pIC50: −log10 of the molar value.
Target: recombinant truncated ILV34 (Aspergillus fumigatus, UniProt Q4X099)
Test: biochemical
Experimental: The assay for ILV34 is based upon the ability of this enzyme to dehydrate dihydroxyacid substrates to a keto acid. […] The appearance of the keto acid product can be monitored directly at 240 nm; alternatively it can be reacted with semicarbazide and sodium acetate and monitored at 250 nm.
Assays were carried out in 96- or 384-well plates. […] Samples were incubated at room temperature and at suitable intervals the reaction was stopped and developed by the addition of 25 p. 1 semicarbazide solution (1.26% w/v semicarbazide in 1.89% w/v sodium acetate solution). The samples were incubated for 15 mins after the final semicarbazide/sodium acetate addition and then read at 250 nm.

Chain of recombinant truncated ILV34 (Q4X099 30-606): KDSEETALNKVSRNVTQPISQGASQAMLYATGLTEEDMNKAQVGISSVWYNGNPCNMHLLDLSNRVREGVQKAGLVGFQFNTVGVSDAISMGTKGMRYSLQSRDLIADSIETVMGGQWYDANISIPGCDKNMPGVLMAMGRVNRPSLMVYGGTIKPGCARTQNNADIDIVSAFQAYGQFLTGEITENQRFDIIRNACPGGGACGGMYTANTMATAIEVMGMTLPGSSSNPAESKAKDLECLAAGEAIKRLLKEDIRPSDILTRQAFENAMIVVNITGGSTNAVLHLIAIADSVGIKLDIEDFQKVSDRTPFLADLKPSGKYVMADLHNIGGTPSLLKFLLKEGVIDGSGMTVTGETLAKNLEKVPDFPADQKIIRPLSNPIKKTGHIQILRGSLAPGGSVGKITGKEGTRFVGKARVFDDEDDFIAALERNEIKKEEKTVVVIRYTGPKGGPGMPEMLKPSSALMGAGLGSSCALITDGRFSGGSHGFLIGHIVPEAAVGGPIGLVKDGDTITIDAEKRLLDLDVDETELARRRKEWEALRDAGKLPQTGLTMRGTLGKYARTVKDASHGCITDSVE

Structure (SMILES): CC(C)C(O)C(=O)O (stereo not shown) [2-hydroxy-3-methylbutyric acid]
- pIC50: ~2.00
